Data: PubChem BioAssay AID1259408 (Genetic Toxicology Data Bank (GENE-TOX), 2018)
The source made the active and inactive calls. The rule behind the calls is not given here.

Test system: GENE-TOX genotoxicity assays, various organisms and cells
Assay: GENE-TOX mutagenicity studies
[1] = Species/Cell Type: Saccharomyces cerevisiae, Assay Type: Mitotic recombination or gene conversion, Assay Code: YEC-, Evaluation Type: Evaluation A (Pre-1980)
[2] = Species/Cell Type: Salmonella typhimurium (one or more of the five standard strains: TA98, TA100, TA1535, TA1537, and TA1538), Assay Type: Histidine reverse gene mutation, Ames assay, Assay Code: SALT, Evaluation Type: Evaluation A (Pre-1980)
[3] = Species/Cell Type: Escherichia coli polA (W3119 vs P3478), Assay Type: Rec-assay, DNA effects (bacterial DNA repair), Assay Code: RE1T, Evaluation Type: Evaluation A (Pre-1980)
[4] = Species/Cell Type: Salmonella typhimurium (one or more of the five standard strains: TA98, TA100, TA1535, TA1537, and TA1538), Assay Type: Histidine reverse gene mutation, Ames assay, Assay Code: SAL+*, Activation: With metabolic activation, Evaluation Type: Evaluation A (Pre-1980)

CC(C)NC(=O)/C=C/c1ccc([N+](=O)[O-])o1
mutagenic call (Species/Cell Type: Chinese hamster lung (V79) cells, Assay Type: Forward gene mutation at the HPRT or ouabain locus, Assay Code: V79+, Evaluation Type: Evaluation A (Pre-1980)): active; positive | mutagenic call (Species/Cell Type: Neurospora crassa, Assay Type: Forward gene mutation, Assay Code: NEF+, Evaluation Type: Evaluation A (Pre-1980)): active; positive | mutagenic call (Species/Cell Type: Neurospora crassa, Assay Type: Reverse gene mutation, Assay Code: NER+, Evaluation Type: Evaluation A (Pre-1980)): active; positive | mutagenic call (Species/Cell Type: Saccharomyces cerevisiae, Assay Type: Mitotic recombination or gene conversion, Assay Code: YEC+, Evaluation Type: Evaluation A (Pre-1980)): active; positive | mutagenic call (Species/Cell Type: Salmonella typhimurium (one or more of the five standard strains: TA98, TA100, TA1535, TA1537, and TA1538), Assay Type: Histidine reverse gene mutation, Ames assay, Assay Code: SAL+, Evaluation Type: Evaluation A (Pre-1980)): active; positive

CNC[C@H](O)c1ccc(O)c(O)c1
mutagenic call (Species/Cell Type: Mammalian polychromatic erythrocytes, Assay Type: Micronucleus test, chromosome aberrations, Assay Code: MNTT, Evaluation Type: Evaluation A (Pre-1980)): no conclusion | mutagenic call (Species/Cell Type: Mouse, Sex: Male, Assay Type: Sperm morphology, Assay Code: SPI-, Evaluation Type: Evaluation A (Pre-1980)): inactive; negative

O=S(=O)(O)c1ccc2c(N=Nc3ccc(S(=O)(=O)O)c4ccccc34)c(O)ccc2c1
mutagenic call [1]: inactive; negative

CCOC(=O)c1cc2cc3ccoc3cc2oc1=O
mutagenic call (Species/Cell Type: Human, Assay Type: Sister-chromatid exchange (SCE) in vitro, Assay Code: SC1+, Evaluation Type: Evaluation B (Post-1980)): active; positive

CC(=O)C=O
mutagenic call (Species/Cell Type: Nonhuman, Assay Type: Sister-chromatid exchange (SCE) in vitro, Assay Code: SC2+D, Dose Response: With dose response, Evaluation Type: Evaluation B (Post-1980)): active; positive

C[C@]12CCC[C@H](O1)c1c(cc3c(c1O)C(=O)c1c(O)cc(O)cc1C3=O)O2
mutagenic call [2]: no conclusion

COc1ccc2nc3cc(Cl)ccc3c(NCCCNCCO)c2n1
mutagenic call (Species/Cell Type: Chinese hamster ovary (CHO) cells, Assay Type: Forward gene mutation at the HPRT locus, Assay Code: CHOT, Evaluation Type: Evaluation B (Post-1980)): no conclusion

O=CNNc1nc(-c2ccco2)cs1
mutagenic call (Species/Cell Type: Escherichia coli WP2, Assay Type: Tryptophan reverse gene mutation, Assay Code: WP2-, Evaluation Type: Evaluation A (Pre-1980)): inactive; negative | mutagenic call (Species/Cell Type: Escherichia coli WP2 UVRA, Assay Type: Tryptophan reverse gene mutation, Assay Code: WPU-, Evaluation Type: Evaluation A (Pre-1980)): inactive; negative

CC(=O)Nc1ccc2c(c1)Cc1cccc(O)c1-2
mutagenic call (Species/Cell Type: Escherichia coli polA (W3110 vs P3478), Assay Type: Rec-assay, DNA effects (bacterial DNA repair), Assay Code: RE2+, Evaluation Type: Evaluation A (Pre-1980)): active; positive | mutagenic call [3]: no conclusion | mutagenic call (Species/Cell Type: Human diploid fibroblasts, Assay Type: Unscheduled DNA synthesis (UDS) in vitro, DNA effects, Assay Code: UDH-, Evaluation Type: Evaluation A (Pre-1980)): inactive; negative | mutagenic call (Species/Cell Type: Saccharomyces cerevisiae, Assay Type: Mitotic recombination or gene conversion, Assay Code: YEH-, Evaluation Type: Evaluation A (Pre-1980)): inactive; negative | mutagenic call [4]: active; positive

CN(C)c1ccc(C(=C2C=CC(=[N+](C)C)C=C2)c2c(O)c(S(=O)(=O)[O-])cc3cc(S(=O)(=O)O)ccc23)cc1
mutagenic call [1]: inactive; negative

CN(CCCCCC(=O)OC[C@H](N)C(=O)O)N=O
mutagenic call (Species/Cell Type: Escherichia coli polA (W3110 vs P3478), Assay Type: Rec-assay, DNA effects (bacterial DNA repair), Assay Code: RE2T, Evaluation Type: Evaluation A (Pre-1980)): no conclusion | mutagenic call [3]: no conclusion

O=NN1CCC(O)CC1
mutagenic call (Species/Cell Type: Drosophila melanogaster, Assay Type: Aneuploidy, partial sex chromosome loss, chromosome aberrations, Assay Code: DAPT, Evaluation Type: Evaluation A (Pre-1980)): no conclusion | mutagenic call (Species/Cell Type: Drosophila melanogaster, Assay Type: Aneuploidy, whole sex chromosome loss, chromosome aberrations, Assay Code: DACT, Evaluation Type: Evaluation A (Pre-1980)): no conclusion | mutagenic call (Species/Cell Type: Drosophila melanogaster, Assay Type: Sex-linked recessive lethal gene mutation, Assay Code: SRLT, Evaluation Type: Evaluation A (Pre-1980)): no conclusion | mutagenic call [4]: active; positive

COc1cc2c(c3oc(=O)c4c(c13)CCOC4=O)[C@@H]1CCO[C@@H]1O2
mutagenic call (Species/Cell Type: Bacillus subtilis (H17 vs M45), Assay Type: Rec-assay, spot test, DNA effects (bacterial DNA repair), Assay Code: REW-, Evaluation Type: Evaluation A (Pre-1980)): inactive; negative | mutagenic call (Species/Cell Type: Chinese hamster lung (V79) cells, Assay Type: Forward gene mutation at the HPRT or ouabain locus, Assay Code: V79-*, Activation: With metabolic activation, Evaluation Type: Evaluation A (Pre-1980)): inactive; negative | mutagenic call (Species/Cell Type: Human diploid fibroblasts, Assay Type: Unscheduled DNA synthesis (UDS) in vitro, DNA effects, Assay Code: UDH-*, Activation: With metabolic activation, Evaluation Type: Evaluation A (Pre-1980)): inactive; negative | mutagenic call (Species/Cell Type: Nonhuman, Assay Type: Sister-chromatid exchange (SCE) in vitro, Assay Code: SC2+D*, Activation: With metabolic activation, Dose Response: With dose response, Evaluation Type: Evaluation B (Post-1980)): active; positive | mutagenic call (Species/Cell Type: Rat primary hepatocytes, Assay Type: Unscheduled DNA synthesis (UDS) in vitro, DNA effects, Assay Code: UDP-, Evaluation Type: Evaluation A (Pre-1980)): inactive; negative | mutagenic call [2]: no conclusion

Cc1cc2ccccc2oc1=O
mutagenic call (Species/Cell Type: Allium cepa, Assay Type: Chromosome aberrations, Assay Code: ALC+D, Dose Response: With dose response, Evaluation Type: Evaluation A (Pre-1980)): active; positive

C=CCN=C=S
mutagenic call (Species/Cell Type: Drosophila melanogaster, Assay Type: Sex-linked recessive lethal gene mutation, Assay Code: SRL+, Evaluation Type: Evaluation A (Pre-1980)): active; positive | mutagenic call (Species/Cell Type: Drosophila melanogaster, Assay Type: Sex-linked recessive lethal gene mutation, Assay Code: SRL-, Evaluation Type: Evaluation A (Pre-1980)): inactive; negative

O=C1OC2(c3ccc(O)cc3Oc3cc(O)ccc32)c2ccccc21
mutagenic call (Species/Cell Type: Bacillus subtilis (H17 vs M45), Assay Type: Rec-assay, spot test, DNA effects (bacterial DNA repair), Assay Code: REWT, Evaluation Type: Evaluation A (Pre-1980)): no conclusion

CCN(CC)CCCNC(=O)N/N=C/c1ccc([N+](=O)[O-])o1
mutagenic call (Species/Cell Type: Escherichia coli WP2 UVRA, Assay Type: Tryptophan reverse gene mutation, Assay Code: WPU+, Evaluation Type: Evaluation A (Pre-1980)): active; positive

c1ccc2c(c1)[nH]c1cnccc12
mutagenic call (Species/Cell Type: Human lymphocytes, Assay Type: Sister-chromatid exchange (SCE) in vitro, Assay Code: SCL+D, Dose Response: With dose response, Evaluation Type: Evaluation B (Post-1980)): active; positive | mutagenic call (Species/Cell Type: Human lymphocytes, Assay Type: Sister-chromatid exchange (SCE) in vitro, Assay Code: SCLT, Evaluation Type: Evaluation B (Post-1980)): no conclusion | mutagenic call (Species/Cell Type: Human, Assay Type: Sister-chromatid exchange (SCE) in vitro, Assay Code: SC1+D, Dose Response: With dose response, Evaluation Type: Evaluation B (Post-1980)): active; positive | mutagenic call (Species/Cell Type: Human, Assay Type: Sister-chromatid exchange (SCE) in vitro, Assay Code: SC1T, Evaluation Type: Evaluation B (Post-1980)): no conclusion
